This is an account of results in US20080090916A1, “Compounds for Treating Urinary Incontinence” (priority 2005, published 2008).

What is called EC50 is the midpoint of the concentration-response curve.

Series [1] can be described thus: Influence of intra-anally applied 1R,2S-methoxamine gel on micturition in subjects. Format: in vivo. The following applies: experimental studies with appreciable systemic levels. As to the method:
The study was conducted according to the following protocol:
• a) 1% by weight 1R,2S-methoxamine in 4% w/w gel • b) 3% by weight 1R,2S-methoxamine in 4% w/w gel • The 4% w/w gel comprises 4 g of hydroxypropylmethyl cellulose in 96 ml of 0.5M acetate buffer. 1% by weight 1R,2S-methoxamine in 4% w/w gel comprises 1 g of 1R,2S-methoxamine in 99 g of the 4% gel. Investigation
In a study for other purposes including 44 subjects, each subject had either the 3% methoxamine gel or the 1% methoxamine gel applied intra-anally. About 1 g of gel was used.

The test system of series [2] is vesicourethral junction sphincter muscle strips. Briefly: Enzyme assay: regeneration of 1R,2S-methoxamine from compound (Ia) by gamma glutamyl transferase, reaction product tested on muscle strips. Format: cell-based, pig. The following applies: 0.3 mM. As to the method: Regeneration of 1R,2S-methoxamine from the Compound of Formula (Ia)
Into a clean glass vial (1 ml volume) the following reaction mixtures were pipetted as follows:
200 μl compound of formula (Ia), 10 mg/ml in Tris buffer (mol. wt. 376, therefore=2 mg compound of formula (Ia)=5.3 μMoles), 100 μl solution E
Reaction product of groups 1, 2 and 3 were only tested for biological activity after 30 minutes of incubation period at 37° C. while that of group 4 were also tested after, 10, 30 and 60 minutes of incubation period. A 5 h group of which reaction mixture indicated in group four were diluted by two fold after 30 min incubation were also tested for biological activity.
Gamma glutamyl transferase, 2-1-18 porcine kidney was purchased from Calzyme Labs San Luis Obispo, Calif. 93401 USA, glyclglycine was obtained from Acros Organics, New Jersey, USA while L-glutamic acid 5-(4-nitroanilide) was purchased from Fluka Chemie Switzerland.
The reaction mixture was incubated in HOT BOX oven, size one incubator made by Gallenpark, England, while the absorbance was measured (@λmax 405 nm), using Anthos 2020 UV/VIS spectrophotometer.
Representative traces of pig vesicourethral junction sphincter muscle response to various enzyme reaction products are shown in FIG. 3 and representative traces of pig proximal sphincter muscle response to various enzyme reaction products are shown in FIG. 4. The enzyme reaction products tested are as follows: • FIG. 3a-50 mM Tris HCl buffer; • FIG. 3b-50 mM Tris HCl buffer, gamma glutamyl transferase. • FIG. 3c-50 mM Tris HCl buffer, MgCl2.6H2O, glycylglycine, compound of formula (Ia); • FIG. 4a-50 mM Tris HCl buffer, MgCl2.6H2O, glycylglycine, gamma glutamyl transferase, compound of formula (Ia); • FIG. 4b-0.3 mM 1R,2S-methoxamine.

A further series deals with mini pigs. The following applies: 1 mg/kg i.v., at maximum effect; cited from earlier work.
The test system of series [3] is pig vesicourethral junction sphincter muscle. Briefly: Functional assay: dose response on isolated pig vesicourethral junction sphincter muscle strips. It is filed as cell-based. The following applies: for EC50: Sus scrofa, contraction, from dose response curve, read-out: relative potencies (EC50); for maximum response: mean ±SEM; for contractile response of muscle strip (representative traces): compound alone, FIG. 1. The text has this: Samples of female white landrace pig bladder and urethra were obtained from freshly slaughtered pigs at the local abattoir. The pigs were killed by exsanguination after initial stunning by electric shock. The anus, rectum, bladder and urethra were then excised en bloc during evisceration and immediately transferred into pre oxygenated Krebs' solution (1 mmol/l: NaCl 120, KCl 5.9 NaHCO3 15.4, CaCl2 2.5, MgCl2 1.2, glucose 11.5) and transported to the laboratory, where they were stored in the refrigerator (at 4° C.) until ready to be processed.
The location of the vesicourethral junction sphincter was then identified. The bladders were inflated via a transurethral catheter with 200 ml. fluid. The fluid was then gently squeeze towards the outlet, until a sharp narrowing of the bladder base becomes apparent (Dass, 1997; Dass et al., 2001). Tissue sections from this region were then denuded of urothelium, and dissected transversely into a number of muscle strips.
Muscle strips measuring about 5-6 mm by 2-3 mm with an average weight of 7 mg were dissected, fine (5/0) silk threads were tied at each end of the strips and each strip mounted vertically in a 0.2 ml capacity, perspex organ bath between two recessed platinum electrodes through which electrical field stimulation (EFS) could be delivered. Strips were constantly superfused with Krebs' solution (37° C.) at a rate of 1.5 ml 1 min. The Krebs' solutions were gassed with 97% oxygen 3% carbon dioxide. Drugs were delivered by substituting drug containing solutions of the desired concentration for Krebs' solutions.
The apparatus comprised of six organ baths in parallel allowing the study of six strips simultaneously as described by Brading and Sibley (1983). Each channel was calibrated with a 1 g weight attached to the transducer before each experiment, and tissues were tensioned to 1 g after mounting. Isomeric tension generated by the strips was measured using isomeric force displacement transducers, Pioden Dynamometer UFI transducers (Pioden Controls Ltd, Canterbury, Kent) or AD Instruments MLT050/D force transducers, amplified (Harvard Transducer/Amplifier, Harvard Apparatus Ltd, Edenbridge, Kent) and analyzed using MacLab Data Acquisition system (AD Instruments, Sydney, Australia) or AD Instruments OCTAL Bridge Amplifier connected to Power Lab/8SP (AD Instruments, Sydney, Australia) and Chart v3.6 software (Macintosh) or Chart v5 (PC).
Dose response curves for the various compounds were constructed by testing one drug on a pair of strip in each experiment. The preparations were subjected to a sequence of successive 10 s […] applications of increasing doses of drugs with intervening washout periods.
1R,2S-methoxamine hydrochloride, the compound of formula (Ia) and the compound of formula (III) were made available by Norgine International Research, Middlesex.
Responses were reported as either grams of tension or % maximum force and given as mean values ±SEM. EC50 values were used as a measure of potency. The EC50 values were measured from the graph of dose response curve using the kaleidograph graphical software applications. Results were assessed using statistical analysis software, StatView 5.0 (SAS Institute Inc.) using ANOVA followed by Fisher's test. Significant difference between data was assumed with p<0.05.

As to `COc1ccc(OC)c([C@@H](O)[C@H](C)N)c1` [1R,2S-methoxamine, (1R,2S)-2-amino-1-(2,5-dimethoxyphenyl)propan-1-ol], the “unwanted systemic side effects” value in series [1] is “elevation of blood pressure”. For the same compound, the “less effective than Mg^2+-glycylglycine-compound of formula (Ia)-enzyme mixture” value in series [2] was 29%. For the same compound, in series [2] (no enzyme), the “contractile (bladder) response” value is given as 1.15 g. Further, in the series on mini pigs, the “rise in diastolic pressure” value is recorded as 57% and the “rise in systolic pressure” value was 23%. In series [3], the EC50 amounted to 56.2 µM and the “contractile response of muscle strip (representative traces)” value is given as “pronounced well defined contractile response”. The compound further returned a maximum response in series [3] (at a concentration of 10^−3M) of 1.12 g.

On to `COc1ccc(OC)c([C@@H](O)[C@H](C)NC(=O)[C@@H](N)CCC(=O)O)c1` [compound of formula (III), (S)-4-Amino-4-[(1S,2R)-2-(2,5-dimethoxyphenyl)-2-hydroxy-1-methyl-ethylcarbamoyl]butyric acid], for which, in series [3], the “biological activity retained relative to 1R,2S-methoxamine” value is recorded as “approximately 10%”, the EC50 is 495 µM and the “contractile response of muscle strip (representative traces)” value is listed as “well defined contractile response”. Further, the maximum response in series [3] (observed at 10^−2M) turned out to be 1.33 g.
